Measurements taken from patent publication US8084027B2, “Combinations comprising a CDK inhibitor and a growth factor antibody or anti-mitotic” (Nerviano Medical Sciences S.r.l., priority 2006, dated 2011).
Read-outs that look alike come from different tables or passages of the source.

What was measured:
[1] = test system: DU145 prostate carcinoma cells; conditions: Compound A 40 mg/kg oral BID; for Time to reach 1 g: DU145 s.c. in athymic mice, docetaxel 10 mg/kg i.v. days 10, 14, 18, in combination Compound A given between docetaxel treatments; for T-C: delay vs control to reach tumor size 1 g, docetaxel 10 mg/kg i.v.
Description: Balb, Nu\Nu male mice, from Harlan (Italy), were maintained in cages with paper filter cover, food and bedding sterilized and water acidified. 2.5×10^6 DU145 prostate carcinoma cells (from the American Type Culture Collection) were injected subcutaneously in athymic mice.
The treatment started 10 days later tumor cells injection when tumors were palpable. Docetaxel was prepared immediately before treatment, while COMPOUND A was prepared every 3 days, on the basis of known stability of the compound.
COMPOUND A was administered by oral route in a volume of 10 ml/kg at the doses of 40 mg/kg twice a day (BID) for 9 days (days 10 to 18). Docetaxel was administered by intravenous route in a volume of 10 ml/kg at the dose of 10 mg/kg on days 10, 14, 18 from the days of cell injection. When combined, COMPOUND A was administered in the interval between the docetaxel treatments at days 11, 12, 13, 15, 16, 17, 19, 20 and 21. Tumor growth and body weight were measured every 3 days. Tumor growth was assessed by caliper. The two diameters were recorded and the tumor weight was calculated according to the following formula: length (mm)×width^2/2. The effect of the antitumor treatment was evaluated as the delay in the onset of an exponential growth of the tumor (see for references, Anticancer drugs 7:437-60, 1996). This delay (T-C value) was defined as the difference of time (in days) required for the treatment group (T) and the control group (C) tumors to reach a predetermined size (1 g). Toxicity was evaluated on the basis of body weight reduction.

[2] = test system: DU145 prostate carcinoma cells; test: In vivo antitumor efficacy using the monoclonal antibody (DU145 xenograft, tumor growth delay); conditions: COMPOUND A 40 mg/kg oral BID; for Time to reach 1 g: DU145 s.c. in athymic mice, bevacizumab 20 mg/kg i.p. days 6, 10, 14, 18, in combination COMPOUND A given between bevacizumab treatments; for T-C: delay vs control to reach tumor size 1 g
Description: Balb, Nu\Nu male mice, from Harlan (Italy), were maintained in cages with paper filter cover, food and bedding sterilized and water acidified. 2.5×10^6 DU145 prostate carcinoma cells (from the American Type Culture Collection) were injected subcutaneously in athymic mice. […] The treatment started 6 days later tumor cell injection when tumors were palpable. Bevacizumab was prepared immediately before treatment, while COMPOUND A was prepared every 3 days, on the basis of known stability of the compound.
COMPOUND A was administrated by oral route in a volume of 10 ml/kg at the dose of 40 mg/kg twice a day (BID) for 12 days (days 6 to 17). Bevacizumab was administered intraperitoneally in a volume of 10 ml/kg at the dose of 20 mg/kg on days 6, 10, 14, 18 from the days of tumor cells injection. When combined, COMPOUND A was administered in the interval between the bevacizumab treatments at days 7, 8, 9, 11, 12, 13, 15, 16, 17, 19, 20 and 21. Tumor growth and body weight were measured every 3 days. Tumor growth was assessed by caliper. The two diameters were recorded and the tumor weight was calculated according the following formula: length (mm)×width^2/2. The effect of the antitumor treatment was evaluated as the delay in the onset of an exponential growth of the tumor (see for references, Anticancer drugs 7:437-60, 1996). This delay (T-C value) was defined as the difference of time (in days) required for the treatment group (T) and the control group (C) tumors to reach a predetermined size (1 g). Toxicity was evaluated on the basis of body weigh reduction.

Row | Compound | Time to reach 1 g [1] [days] | T-C [1] [days] | Time to reach 1 g [2] [days] | T-C ([2]; bevacizumab 20 mg/kg i.p.) [days] | Toxicity ([2]; evaluated on the basis of body weight reduction, bevacizumab 20 mg/kg i.p.)
1 | CC(=O)O[C@@]12CO[C@@H]1C[C@H](O)[C@@]1(C)C(=O)[C@H](O)C3=C(C)[C@@H](OC(=O)[C@H](O)[C@@H](NC(=O)OC(C)(C)C)c4ccccc4)C[C@@](O)([C@@H](OC(=O)c4ccccc4)[C@H]21)C3(C)C [Docetaxel] | 22.25 ± 2.98 | 5.05 |  |  | 
2 | Bevacizumab: antibody to vascular endothelial growth factor |  |  | 27.93 ± 3.44 | 12.43 | 0/8
3 | CNC(=O)c1nn(C)c2c1C(C)(C)Cc1cnc(Nc3ccc(N4CCN(C)CC4)cc3)nc1-2 [COMPOUND A, 8-[4-(4-methyl-piperazin-1-yl)-phenylamino]-1,4,4-trimethyl-4,5-dihydro-1H-pyrazolo[4,3-h]quinazoline-3-carboxylic acid methylamide] | 27.4 ± 2.7 | 10.21 | 32.38 ± 2.7 | 16.88 | 
